The source of these data is ChEMBL document CHEMBL1142442, “Synthesis of chimeric tetrapeptide-linked cholic acid derivatives: impending synergistic agents” (Bioorg Med Chem Lett, 2008).

≈ marks a conversion by molar mass, not a printed value. Some results are limits rather than exact numbers.

Series [1] deals with HEK293. As to the kind of experiment: Antiproliferative activity against HEK293 cells by MTT assay. Type of series: cell-based. The note with it: Homo sapiens. On the technique in general: Tetrazolium dyes change colour on reduction, which living cells bring about.
For series [2], the system named is Candida albicans. As to the kind of experiment: Antifungal activity at Candida albicans. In kind it is functional.
Series [3] relates to Candida albicans. As to the kind of experiment: Antifungal activity at Candida albicans assessed as concentration required to lower the MIC of fluconazole from 32 to 1 ug/mL after 48 hrs. Type of series: functional.
In another series the test system is Cryptococcus neoformans. The series can be described thus: Antifungal activity at Cryptococcus neoformans. Type of series: functional.
Series [4] has as its system MCF7. The series can be described thus: Antiproliferative activity against human MCF7 cells at upto 80 uM by MTT assay. In kind it is functional, cell-based.
Series [5] concerns MCF7. As to the kind of experiment: Antiproliferative activity against human MCF7 cells by MTT assay. Type of series: functional, cell-based.
In series [6] the test system is Escherichia coli. As to the kind of experiment: Antibacterial activity at Escherichia coli. Type of series: functional.
For another series, the system named is Fusarium oxysporum. As to the kind of experiment: Antifungal activity at Fusarium oxysporum. In kind it is functional.
In a further series the test system is Benjaminiella poitrasii. The series can be described thus: Antifungal activity at Benjaminiella poitrasii. Type of series: functional.
The subject of another series is Yarrowia lipolytica. The series can be described thus: Antifungal activity at Yarrowia lipolytica. Type of series: functional.
Series [7] relates to Escherichia coli. The series can be described thus: Antibacterial activity at Escherichia coli assessed as concentration required to lower the MIC of erythromycin from 64 to 1 ug/mL after 24 hrs. Type of series: functional.
The next series deals with Staphylococcus aureus. As to the kind of experiment: Antibacterial activity at Staphylococcus aureus. In kind it is functional.
Series [8] concerns HEK293. The series can be described thus: Antiproliferative activity against HEK293 cells at upto 80 uM by MTT assay. Type of series: cell-based. The note with it: human.

As usually defined, the IC50 is the concentration at which inhibition is half-maximal. Higher therefore signals weaker potency in that assay. For orientation: MIC means the smallest concentration in the dilution series that meets the test's criterion for growth inhibition. Take `C[C@H](CCC(=O)O)[C@H]1CC[C@H]2[C@@H]3[C@H](O)C[C@@H]4C[C@@H](NC(=O)CCNC(=O)CCNC(=O)CCNC(=O)CCN)CC[C@]4(C)[C@H]3C[C@H](O)[C@]12C`: the IC50 is > 1000 µM in the series with HEK293 [1] and 200 µM in the series with MCF7 [5]. Moreover, the minimum inhibitory concentration (MIC) is 32 µg/mL (≈ 46.2 µM) in the series on Candida albicans [2]; 1 µg/mL in the series on Candida albicans [3]; > 128 µg/mL against Cryptococcus neoformans; 32 µg/mL (≈ 46.2 µM) with Escherichia coli [6]; 64 µg/mL (≈ 92.5 µM) against Fusarium oxysporum; 24 µg/mL (≈ 34.7 µM) against Benjaminiella poitrasii. Besides, the minimum inhibitory concentration (MIC) with Yarrowia lipolytica is > 128 µg/mL; in the series on Escherichia coli [7] it was 4 µg/mL; against Staphylococcus aureus, > 128 µg/mL. In addition, the Activity result with MCF7 [4] and in the series with HEK293 [8] was “Non-toxic” throughout.

As for `CC(CCC(=O)O)C1CCC2C3C(O)CC4CC(NC(=O)CCNC(=O)CCNC(=O)CCNC(=O)CCNC(=O)OC(C)(C)C)CCC4(C)C3CC(O)C12C` (centres undefined), the IC50 in the series on HEK293 [1] and in the series on MCF7 [5] was > 1000 µM throughout. For the same molecule, the minimum inhibitory concentration (MIC) against Candida albicans [2] is 32 µg/mL (≈ 40.4 µM); with Candida albicans [3], 12 µg/mL; in the series on Cryptococcus neoformans it was > 128 µg/mL; against Escherichia coli [6], > 128 µg/mL; against Fusarium oxysporum, 64 µg/mL (≈ 80.8 µM); with Benjaminiella poitrasii, 48 µg/mL (≈ 60.6 µM). For the same molecule, the minimum inhibitory concentration (MIC) in the series with Yarrowia lipolytica is > 128 µg/mL; in the series with Escherichia coli [7], 16 µg/mL; with Staphylococcus aureus, > 128 µg/mL. Further, the Activity result in the series with MCF7 [4] and with HEK293 [8] was “Non-toxic” each time.

Consider `COC(=O)CC[C@@H](C)[C@H]1CC[C@H]2[C@@H]3[C@H](O)C[C@@H]4C[C@@H](NC(=O)CCNC(=O)CCNC(=O)CCNC(=O)CCN)CC[C@]4(C)[C@H]3C[C@H](O)[C@]12C`, for which the IC50 with HEK293 [1] was determined as 700 µM; with MCF7 [5], 600 µM. Besides, the MIC is 128 µg/mL (≈ 181 µM) against Candida albicans [2]; 3 µg/mL in the series on Candida albicans [3]; > 128 µg/mL against Cryptococcus neoformans; 96 µg/mL (≈ 136 µM) in the series with Escherichia coli [6]; 32 µg/mL (≈ 45.3 µM) in the series on Fusarium oxysporum; 24 µg/mL (≈ 34 µM) against Benjaminiella poitrasii. Moreover, the MIC in the series on Yarrowia lipolytica is > 128 µg/mL; in the series with Escherichia coli [7] it was 8 µg/mL; in the series on Staphylococcus aureus, 64 µg/mL (≈ 90.7 µM). In addition, the Activity result in the series on MCF7 [4] and with HEK293 [8] was “Non-toxic” each time.
